According to patent publication US20240423927A1, “COMPOSITIONS AND METHODS FOR USE IN IMMUNOTHERAPY” (INSTITUT CURIE, priority 2021, published 2024):

Columns and labels:
[1] = tested on: STING; conditions: comparative statement (hSTING vs mSTING; or vs cGAMP); cited from earlier work
[2] = target: STING (Homo sapiens, UniProt Q86WV6); conditions: compared with cGAMP, reporter assays; cited from earlier work
[3] = tested on: tumor-specific CD8 and CD4 T cell responses (PBMCs); assay: Ex vivo stimulation assay: IFN-γ ELISPOT of PBMCs stimulated with OVA and p15 peptides; format: in vivo, C57BL/6J mice; conditions: Example 1, four days after third s.c. injection, cGAMP-VLP 50 ng cGAMP s.c., Imatinib 10 mg/kg i.p.
Source text: […] Mice were bled in the retro-orbital sinus and PBMCs were isolated from whole blood by lysing the red blood cells. […] Spots were developed using a mouse IFN-γ ELISPOT antibody (Diaclone) according to the manufacturer's instructions, and the number of spots enumerated using an ImmunoSpot analyzer.

[4] = tested on: MCA-OVA tumor; assay: Tumor growth monitoring in MCA-OVA tumor model; format: in vivo, C57BL/6J mice; conditions: Example 1; cGAMP-VLP 50 ng cGAMP s.c. three times, Imatinib 10 mg/kg i.p. days 6-10
[5] = tested on: MCA-OVA tumor; assay: Survival of treated MCA-OVA tumor-bearing mice; format: in vivo, C57BL/6J mice; conditions: Example 1; log-rank test; cGAMP-VLP 50 ng cGAMP s.c., Imatinib 10 mg/kg i.p.

STING (Homo sapiens, UniProt Q86WV6), sequence (Q86WV6 whole entry): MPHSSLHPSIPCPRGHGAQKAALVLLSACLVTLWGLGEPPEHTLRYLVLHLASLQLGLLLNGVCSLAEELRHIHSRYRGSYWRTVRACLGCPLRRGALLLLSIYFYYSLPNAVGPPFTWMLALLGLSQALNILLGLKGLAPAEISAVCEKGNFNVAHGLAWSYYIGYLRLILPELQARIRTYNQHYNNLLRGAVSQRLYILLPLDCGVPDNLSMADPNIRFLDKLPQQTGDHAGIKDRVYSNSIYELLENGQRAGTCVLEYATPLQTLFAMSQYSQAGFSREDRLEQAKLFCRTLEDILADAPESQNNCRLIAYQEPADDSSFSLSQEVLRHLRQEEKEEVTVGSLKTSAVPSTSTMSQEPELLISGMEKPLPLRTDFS

Row | Compound | Affinity/binding to STING [1] | Potency for inducing type I IFN [2] | Tumor-specific T cell responses in peripheral blood (IFN-γ ELISPOT) [3] | Tumor growth [4] | Survival (death event: tumor size >2 cm^3) [5]
1 | Diaminobenzimidazole | enhanced binding to STING and cellular function as compared to cGAMP | – | – | – | –
2 | COc1c(O)cc2oc3cc(O)c(CC=C(C)C)c(O)c3c(=O)c2c1CC=C(C)C [α-mangostin] | higher affinity to human (h)STING than to mSTING | weaker potency for inducing type I IFN compared with cGAMP | – | – | –
3 | Cc1ccc(NC(=O)c2ccc(CN3CCN(C)CC3)cc2)cc1Nc1nccc(-c2cccnc2)n1 [Imatinib] | – | – | did not induce tumor-specific T cell responses compared to the PBS group | no effect on the tumor growth compared to control group | did not show survival benefit compared to PBS treatment
